The target in one test is T1, human SGLT2 (Homo sapiens, UniProt P31639).
T1 sequence (P31639 1-672): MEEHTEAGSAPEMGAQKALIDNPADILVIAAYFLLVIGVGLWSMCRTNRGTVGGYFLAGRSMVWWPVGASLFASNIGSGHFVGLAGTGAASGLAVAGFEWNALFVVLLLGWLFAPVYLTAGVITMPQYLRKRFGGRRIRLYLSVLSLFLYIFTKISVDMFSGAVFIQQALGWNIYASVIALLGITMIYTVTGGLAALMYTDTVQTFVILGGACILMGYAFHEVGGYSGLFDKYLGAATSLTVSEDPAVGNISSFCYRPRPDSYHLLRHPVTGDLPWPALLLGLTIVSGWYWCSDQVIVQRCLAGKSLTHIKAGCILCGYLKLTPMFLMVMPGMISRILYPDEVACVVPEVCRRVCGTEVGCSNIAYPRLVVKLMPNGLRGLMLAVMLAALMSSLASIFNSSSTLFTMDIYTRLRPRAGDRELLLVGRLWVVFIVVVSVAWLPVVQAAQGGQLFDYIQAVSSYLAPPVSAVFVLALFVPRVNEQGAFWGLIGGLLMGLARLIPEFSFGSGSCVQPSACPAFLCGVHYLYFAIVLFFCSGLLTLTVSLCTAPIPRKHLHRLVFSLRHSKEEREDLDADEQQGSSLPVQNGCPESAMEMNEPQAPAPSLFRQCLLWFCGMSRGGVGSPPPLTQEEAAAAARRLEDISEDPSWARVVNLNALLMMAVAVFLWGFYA
In words: Compound washout study, cells expressing human SGLT2.

A further test concerns the target T2, human SGLT1 (Homo sapiens, UniProt P13866).
T2 sequence (P13866 1-664): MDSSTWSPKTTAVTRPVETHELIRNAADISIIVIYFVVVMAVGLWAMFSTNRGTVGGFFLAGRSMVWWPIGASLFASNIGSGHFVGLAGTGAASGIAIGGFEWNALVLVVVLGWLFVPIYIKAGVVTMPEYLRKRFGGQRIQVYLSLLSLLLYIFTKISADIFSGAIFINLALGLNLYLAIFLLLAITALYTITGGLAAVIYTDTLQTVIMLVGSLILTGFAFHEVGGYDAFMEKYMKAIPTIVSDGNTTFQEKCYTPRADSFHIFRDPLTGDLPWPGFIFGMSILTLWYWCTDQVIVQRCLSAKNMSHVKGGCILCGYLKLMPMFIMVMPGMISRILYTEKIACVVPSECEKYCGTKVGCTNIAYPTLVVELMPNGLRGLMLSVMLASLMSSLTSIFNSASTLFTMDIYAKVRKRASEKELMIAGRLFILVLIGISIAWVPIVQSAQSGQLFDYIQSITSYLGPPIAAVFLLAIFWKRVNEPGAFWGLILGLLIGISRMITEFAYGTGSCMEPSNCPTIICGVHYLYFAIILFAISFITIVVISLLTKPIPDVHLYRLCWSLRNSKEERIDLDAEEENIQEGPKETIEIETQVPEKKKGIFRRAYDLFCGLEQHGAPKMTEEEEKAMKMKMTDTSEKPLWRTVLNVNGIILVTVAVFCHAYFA
In words: 14C-AMG uptake assay, HEK293 cells expressing human SGLT1. It counts as cell-based. On the set-up: expressed in transfected cells. Conditions: mean ± SD. The text has this: Methods for generating cell lines expressing mouse, rat, and dog SGLT1 and SGLT2 are published (Powell et al. [2013b], [2014]). Full-length coding sequence of human SGLT1 (NP_000334) and human SGLT2 (NP_003032.1) with an HA-tag at the N-terminus were cloned into the mammalian expression vector pIRESpuro2 (Clontech, Mountain View, CA). HEK293 cells (ATCC, Manassas, VA) were transfected with the pIRESpuro2 vector containing human SGLT1 or SGLT2 and bulk stable cell lines were selected in the presence of 0.5 μg/mL of puromycin.
Cell lines expressing SGLT1 or SGLT2 were plated into poly-D-lysine-coated 384-well plates, and culture overnight in cell growth medium. Cells were washed, and then incubated in uptake buffer ([…], […] KCl, […] CaCl2, […] MgCl2, […] HEPES/Tris, 1 mg/mL of bovine serum albumin, pH7.4) containing [^14C]α-methylglucopyranoside (^14C-AMG), a nonmetabolizable glucose analog specific for sodium-dependent glucose transporters (Wright and Turk [2004]). The inhibition of SGLT1 or SGLT2 was determined by measuring SGLT1/2-mediated ^14C-AMG uptake in the presence of increasing compound concentrations of LP-925219. […] Standard sigmoidal dose–response model curves were fitted, and the IC50 value was computed as the LP-925219 concentration that inhibited the ^14C-AMG uptake by 50% between baseline and maximum uptake.

Molecules are shown by their SMILES.

This note sets out measurements from paper PMC4448982, “LP-925219 maximizes urinary glucose excretion in mice by inhibiting both renal SGLT1 and SGLT2” (Pharmacology Research & Perspectives, 2015).

Source text for human SGLT2: Cells expressing human SGLT2 were studied using the above protocol. […] Cells expressing human SGLT2 were studied using the above protocol.

As for `COc1ccc(Cc2cc([C@@H]3O[C@H](SC)[C@@H](O)[C@H](O)[C@H]3O)ccc2Cl)cc1` [LP-925219], the IC50 at human SGLT2 (no wash protocol) is 2.2 nM; against human SGLT2 (washout protocol, 18-20 h recovery after 30 min treatment) it was 6.8 nM; on human SGLT1 it was 15.9 ± 4.2 nM.
